In PubChem BioAssay AID192 (DTP/NCI, 2004):
Inconclusive results and toxic doses are left out. How the source made its calls: active means survival T/C of 150% or more; inactive means T/C below 125% in these data. Numbered stars: 1 amine (or outer) side, 2 acyl side, 3 side chain; on linkers, the order of the positions; unused ones are H or OH. Peptide text beside a SMILES is read from it. ξ: configuration not given here. ξγGlu = O=C(O)C(CCC(=O)[*:2])N[*:1]

System: BDF1 mice, B16 melanoma ip, median survival T/C
Assay: NCI In Vivo Anticancer Drug Screen. Data for tumor model B16 Melanoma (intraperitoneal) in B6D2F1 (BDF1) mice
Settings: endpoint: median survival time, higher = longer survival
Method in brief: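 Vehicle-treated animals serve as the reference (C); treated animals (T) are scored for survival or tumor size after tumor transplantation.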

[1] = dose: 50.0 mg/kg/injection, schedule: Q01DX009 (ip), vehicle: saline with Tween-80
[2] = dose: 100.0 mg/kg/injection, schedule: Q01DX009 (ip), vehicle: saline with Tween-80
[3] = dose: 50.0 mg/kg/injection, schedule: Q01DX009 (ip), vehicle: saline
[4] = dose: 100.0 mg/kg/injection, schedule: Q01DX009 (ip), vehicle: saline
[5] = dose: 50.0 mg/kg/injection, schedule: Q01DX009 (ip), vehicle: water
[6] = dose: 12.5 mg/kg/injection, schedule: Q01DX009 (ip), vehicle: Klucel (hydroxypropylcellulose) (HPC)
[7] = dose: 12.5 mg/kg/injection, schedule: Q04DX003 (ip), vehicle: Klucel (hydroxypropylcellulose) (HPC)
[8] = dose: 25.0 mg/kg/injection, schedule: Q04DX003 (ip), vehicle: Klucel (hydroxypropylcellulose) (HPC)
[9] = dose: 50.0 mg/kg/injection, schedule: Q01DX009 (ip), vehicle: Klucel (hydroxypropylcellulose) (HPC)
[10] = dose: 50.0 mg/kg/injection, schedule: Q04DX003 (ip), vehicle: Klucel (hydroxypropylcellulose) (HPC)
[11] = dose: 200.0 mg/kg/injection, schedule: Q01DX009 (ip), vehicle: saline with Tween-80
[12] = dose: 100.0 mg/kg/injection, schedule: Q04DX003 (ip), vehicle: Klucel (hydroxypropylcellulose) (HPC)
[13] = dose: 200.0 mg/kg/injection, schedule: Q04DX003 (ip), vehicle: Klucel (hydroxypropylcellulose) (HPC)

Measured: T/C

CCOC(=O)c1ccc(NC(=O)NC)cc1
inactive: dose: 100.0 mg/kg/injection, schedule: Q04DX003 (ip), vehicle: saline with Tween-80 93 % of control | dose: 200.0 mg/kg/injection, schedule: Q04DX003 (ip), vehicle: saline with Tween-80 86 % of control | dose: 400.0 mg/kg/injection, schedule: Q04DX003 (ip), vehicle: saline with Tween-80 86 % of control

CCCCCCCCCNC(=O)Nc1cccc(Cl)c1C
inactive: [1] 99 % of control | [2] 91 % of control

NC(CCC(=O)NCC(=O)NCC(=O)O)C(=O)O (stereo not drawn) (ξγGlu-Gly-Gly-OH)
inactive: [3] 106 % of control | [4] 97 % of control | dose: 200.0 mg/kg/injection, schedule: Q01DX009 (ip), vehicle: saline 102 % of control | dose: 400.0 mg/kg/injection, schedule: Q01DX009 (ip), vehicle: saline 91 % of control

IP(c1ccccc1)(c1ccccc1)(c1ccccc1)N1C2CCCCC21 (stereo not given)
inactive: dose: 0.15 mg/kg/injection, schedule: Q01DX009 (ip), vehicle: saline 115 % of control | dose: 0.3 mg/kg/injection, schedule: Q01DX009 (ip), vehicle: saline 111 % of control | dose: 0.6 mg/kg/injection, schedule: Q01DX009 (ip), vehicle: saline 111 % of control | dose: 1.2 mg/kg/injection, schedule: Q01DX009 (ip), vehicle: saline 92 % of control

Oc1cc2c3c(c1)c1cc4c(cc1c[n+]3CC2)OCO4
inactive: dose: 1.56 mg/kg/injection, schedule: Q01DX009 (ip), vehicle: distilled water + Tween-80 117 % of control | dose: 3.12 mg/kg/injection, schedule: Q01DX009 (ip), vehicle: water 115 % of control | dose: 3.13 mg/kg/injection, schedule: Q01DX009 (ip), vehicle: distilled water + Tween-80 113 % of control | dose: 6.25 mg/kg/injection, schedule: Q01DX009 (ip), vehicle: water 118 % of control | dose: 25.0 mg/kg/injection, schedule: Q01DX009 (ip), vehicle: distilled water + Tween-80 119 % of control | [5] 124 % of control

CN(C)C1CCCCC1
inactive: [6] 91 % of control | [7] 116 % of control | [8] 100 % of control | [9] 100 % of control | [10] 91 % of control

OCC1OCCO1
inactive: [2] 96 % of control | [11] 93 % of control

CNCCN(C)Cc1ccccc1
inactive: dose: 25.0 mg/kg/injection, schedule: Q01DX009 (ip), vehicle: saline 97 % of control | [3] 94 % of control | [4] 89 % of control

Cc1cc(C(C)C)cc(C(C)C)c1
inactive: dose: 6.25 mg/kg/injection, schedule: Q04DX003 (ip), vehicle: Klucel (hydroxypropylcellulose) (HPC) 102 % of control | [7] 108 % of control | [8] 105 % of control | [10] 88 % of control | [12] 98 % of control | [13] 97 % of control

CNC(=O)N(C)c1cc(N(C)C)nc(OC)n1
inactive: dose: 5.0 mg/kg/injection, schedule: Q01DX009 (ip), vehicle: Klucel (hydroxypropylcellulose) (HPC) 101 % of control | dose: 10.0 mg/kg/injection, schedule: Q01DX009 (ip), vehicle: Klucel (hydroxypropylcellulose) (HPC) 93 % of control | dose: 20.0 mg/kg/injection, schedule: Q01DX009 (ip), vehicle: Klucel (hydroxypropylcellulose) (HPC) 94 % of control

Nc1ncnc2c1ncn2C1OC(COP(=O)(O)O)C(O)C1O (stereo not given)
inactive: dose: 12.5 mg/kg/injection, schedule: Q01DX009 (ip), vehicle: saline 124 % of control | dose: 12.5 mg/kg/injection, schedule: Q01DX009 (ip), vehicle: water 112 % of control | dose: 20.0 mg/kg/injection, schedule: Q01DX009 (ip), vehicle: water 113 % of control | dose: 25.0 mg/kg/injection, schedule: Q01DX009 (ip), vehicle: water 108 % of control | dose: 40.0 mg/kg/injection, schedule: Q01DX009 (ip), vehicle: water 110 % of control | [3] 116 % of control | [5] 108 % of control | dose: 80.0 mg/kg/injection, schedule: Q01DX009 (ip), vehicle: water 104 % of control | [4] 121 % of control | dose: 100.0 mg/kg/injection, schedule: Q01DX009 (ip), vehicle: water 118 % of control | dose: 160.0 mg/kg/injection, schedule: Q01DX009 (ip), vehicle: water 113 % of control | dose: 200.0 mg/kg/injection, schedule: Q01DX009 (ip), vehicle: water 118 % of control | dose: 320.0 mg/kg/injection, schedule: Q01DX009 (ip), vehicle: water 124 % of control | dose: 400.0 mg/kg/injection, schedule: Q01DX009 (ip), vehicle: water 117 % of control

Clc1sc2ccccc2c1Cl
inactive: dose: 6.25 mg/kg/injection, schedule: Q01DX009 (ip), vehicle: Klucel (hydroxypropylcellulose) (HPC) 93 % of control | [6] 92 % of control | dose: 25.0 mg/kg/injection, schedule: Q01DX009 (ip), vehicle: Klucel (hydroxypropylcellulose) (HPC) 91 % of control | [9] 90 % of control

O=C1CC(C(=O)N2Cc3cc4ccccc4nc3C2)CO1 (stereo not given)
inactive: dose: 6.25 mg/kg/injection, schedule: Q01DX009 (ip), vehicle: saline with Tween-80 111 % of control | dose: 12.5 mg/kg/injection, schedule: Q01DX009 (ip), vehicle: saline with Tween-80 115 % of control | dose: 25.0 mg/kg/injection, schedule: Q01DX009 (ip), vehicle: saline with Tween-80 113 % of control | [1] 109 % of control | [2] 116 % of control | [11] 100 % of control

O=C(Nc1cccc2ccccc12)Oc1ccccc1Cc1ccccc1
inactive: dose: 100.0 mg/kg/injection, schedule: Q04DX003 (ip), vehicle: saline 100 % of control | dose: 200.0 mg/kg/injection, schedule: Q04DX003 (ip), vehicle: saline 106 % of control | dose: 400.0 mg/kg/injection, schedule: Q04DX003 (ip), vehicle: saline 106 % of control

Cc1[nH]c(=O)[nH]c(=O)c1C
inactive: [10] 88 % of control | dose: 100.0 mg/kg/injection, schedule: Q01DX009 (ip), vehicle: Klucel (hydroxypropylcellulose) (HPC) 88 % of control | [12] 97 % of control | dose: 200.0 mg/kg/injection, schedule: Q01DX009 (ip), vehicle: Klucel (hydroxypropylcellulose) (HPC) 91 % of control | [13] 91 % of control

COc1cccnc1/C=N/NC(N)=S
inactive: dose: 1.5 mg/kg/injection, schedule: Q01DX009 (ip), vehicle: saline with Tween-80 98 % of control | dose: 3.0 mg/kg/injection, schedule: Q01DX009 (ip), vehicle: saline with Tween-80 93 % of control | dose: 6.0 mg/kg/injection, schedule: Q01DX009 (ip), vehicle: saline with Tween-80 95 % of control | dose: 12.0 mg/kg/injection, schedule: Q01DX009 (ip), vehicle: saline with Tween-80 98 % of control

O=C1C(=C(C(F)(F)F)C(F)(F)F)CCc2ccccc21
inactive: [10] 95 % of control | [12] 95 % of control | [13] 100 % of control

Cc1c(N)nc(C(CC(N)=O)NCC(N)C(N)=O)nc1C(=O)NC(C(=O)NC(C)C(O)CC(=O)NC(C(=O)NC(OC1OC(C)C(N)C(O)C1O)C(O)c1nc(-c2nc(C(=O)NCCCC(N)CC(=O)NCCCNCCCCN)cs2)cs1)C(C)O)C(OC1OC(CO)C(O)C(O)C1OC1OC(CO)C(O)C(OC(N)=O)C1O)c1cnc[nH]1 (stereo not given)
inactive: dose: 0.2 mg/kg/injection, schedule: Q01DX009 (ip), vehicle: saline 113 % of control | dose: 0.8 mg/kg/injection, schedule: Q01DX009 (ip), vehicle: saline 90 % of control | dose: 1.6 mg/kg/injection, schedule: Q01DX009 (ip), vehicle: saline 101 % of control
